Test results taken from patent US10202361B2, “Pyridazinones as herbicides” (E I DU PONT DE NEMOURS AND COMPANY, priority 2014, dated 2019).

What was measured:
Experiment in all cases: Test C pre-/postemergence greenhouse herbicide test
Assay type in all cases: in vivo
[1] = tested on: oilseed rape (Brassica napus); conditions: Oilseed Rape, Preemergence
Description: (§1) Seeds of plant species selected from blackgrass (Alopecurus myosuroides), bromegrass, downy (downy bromegrass, Bromus tectorum), foxtail, green (green foxtail, Setaria viridis), ryegrass, Italian (Italian ryegrass, Lolium multiflorum), wheat (winter wheat, Triticum aestivum), oat, wild (wild oat, Avena fatua), galium (catchweed bedstraw, Galium aparine), bermudagrass (Cynodon dactylon), surinam grass (Brachiaria decumbens), cocklebur (common cocklebur, Xanthium strumarium), corn (Zea mays), crabgrass, large (large crabgrass, Digitaria sanguinalis), cupgrass, woolly (woolly cupgrass, Eriochloa villosa), foxtail, giant (giant foxtail, Setaria faberii), goosegrass (Eleusine indica), johnsongrass (Sorghum halepense), kochia (Kochia scoparia), lambsquarters (Chenopodium album), morningglory (Ipomoea coccinea), nightshade (eastern black nightshade, Solanum ptycanthum), nutsedge, yellow (yellow nutsedge, Cyperus esculentus), pigweed (Amaranthus retroflexus), ragweed (common ragweed, Ambrosia elatior), soybean (Glycine max), sunflower (common oilseed sunflower, Helianthus annuus), Russian thistle (Salsola kali), barnyardgrass (Echinochloa crus-galli), oilseed rape (Brassica napus), waterhemp (common waterhemp, Amaranthus rudis), and velvetleaf (Abutilon theophrasti) were planted into a blend of loam soil and sand and treated preemergence with test chemicals formulated in a non-phytotoxic solvent mixture which included a surfactant.
(§2) At the same time, plants selected from these crop and weed species and also barley (winter barley, Hordeum vulgare), canarygrass (Phalaris minor), windgrass (Apera spica-venti), deadnettle (henbit deadnettle, Lamium amplexicaule), and chickweed (common chickweed, Stellaria media) were planted in pots containing Redi-Earth® planting medium (Scotts Company, 14111 Scottslawn Road, Marysville, Ohio 43041) comprising spaghnum peat moss, vermiculite, wetting agent and starter nutrients and treated with postemergence applications of test chemicals formulated in the same manner. Plants ranged in height from 2 to 18 cm (1- to 4-leaf stage) for postemergence treatments. Treated plants and controls were maintained in a greenhouse for 13 to 15 d, after which time all species were compared to controls and visually evaluated. Plant response ratings, summarized in Table C, are based on a scale of 0 to 100 where 0 is no effect and 100 is complete control. A dash (-) response means no test result.

[2] = tested on: ragweed (common ragweed, Ambrosia elatior); conditions: Ambrosia artemisiifolia, pre-emergence, Ragweed, Preemergence, read-out: Plant response rating
Description: as §1, §2

corn (Zea mays) = conditions: Zea mays, pre-emergence, Corn, Preemergence, read-out: Plant response rating
Description: as §1, §2

[3] = tested on: johnsongrass (Sorghum halepense); conditions: Sorghum halepense, pre-emergence, Johnsongrass, Preemergence, read-out: Plant response rating
Description: as §1, §2

[4] = tested on: nutsedge, yellow (yellow nutsedge, Cyperus esculentus); conditions: Cyperus, pre-emergence, Nutsedge, Yellow, Preemergence, read-out: Plant response rating
Description: as §1, §2

[5] = tested on: lambsquarters (Chenopodium album); conditions: Preemergence
Description: as §1, §2

[6] = tested on: galium (catchweed bedstraw, Galium aparine); conditions: pre-emergence, Galium, Preemergence, read-out: Plant response rating
Description: as §1, §2

[7] = tested on: ryegrass, Italian (Italian ryegrass, Lolium multiflorum); conditions: Lolium multiflorum, pre-emergence, Ryegrass, Italian, Preemergence, read-out: Plant response rating
Description: as §1, §2

[8] = tested on: pigweed (Amaranthus retroflexus); conditions: Amaranthus retroflexus, pre-emergence, Pigweed, Preemergence, read-out: Plant response rating
Description: as §1, §2

[9] = tested on: crabgrass, Large (large crabgrass, Digitaria sanguinalis); conditions: Digitaria sanguinalis, pre-emergence, Crabgrass, Large, Preemergence, read-out: Plant response rating
Description: as §1, §2

SMILES: CCOc1cc(=O)n(-c2ccc(F)cc2)nc1Cc1ccnc(C(F)(F)F)c1 [Compound 25, 5-ethoxy-2-(4-fluorophenyl)-6-[[2-(trifluoromethyl)-4-pyridinyl]methyl]-3 (2H)-pyridazinone]
- Plant response rating ([1]; 31 g ai/ha): 50
- Plant response rating ([1]; 62 g ai/ha): 95
- Plant response rating ([1]; 125 g ai/ha): 95
- Plant response rating ([1]; 250 g ai/ha): 95
- pest or weed control at 31 g/ha ([2]; 31 g ai/ha): 60%
- pest or weed control at 62 g/ha ([2]; 62 g ai/ha): 85%
- pest or weed control at 125 g/ha ([2]; 125 g ai/ha): 65%
- pest or weed control at 250 g/ha ([2]; 250 g ai/ha): 95%
- plant injury at 31 g/ha (corn (Zea mays); 31 g ai/ha): 10%
- plant injury at 62 g/ha (corn (Zea mays); 62 g ai/ha): 30%
- plant injury at 125 g/ha (corn (Zea mays); 125 g ai/ha): 35%
- plant injury at 250 g/ha (corn (Zea mays); 250 g ai/ha): 45%
- pest or weed control at 31 g/ha ([3]; 31 g ai/ha): 65%
- pest or weed control at 62 g/ha ([3]; 62 g ai/ha): 75%
- pest or weed control at 125 g/ha ([3]; 125 g ai/ha): 90%
- pest or weed control at 250 g/ha ([3]; 250 g ai/ha): 98%
- pest or weed control at 31 g/ha ([4]; 31 g ai/ha): 10%
- pest or weed control at 62 g/ha ([4]; 62 g ai/ha): 5%
- pest or weed control at 125 g/ha ([4]; 125 g ai/ha): 15%
- pest or weed control at 250 g/ha ([4]; 250 g ai/ha): 45%
- Plant response rating ([5]; 31 g ai/ha): 100
- Plant response rating ([5]; 62 g ai/ha): 100
- Plant response rating ([5]; 125 g ai/ha): 100
- Plant response rating ([5]; 250 g ai/ha): 100
- pest or weed control at 31 g/ha ([6]; 31 g ai/ha): 85%
- pest or weed control at 62 g/ha ([6]; 62 g ai/ha): 90%
- pest or weed control at 125 g/ha ([6]; 125 g ai/ha): 100%
- pest or weed control at 250 g/ha ([6]; 250 g ai/ha): 100%
- pest or weed control at 31 g/ha ([7]; 31 g ai/ha): 20%
- pest or weed control at 62 g/ha ([7]; 62 g ai/ha): 40%
- pest or weed control at 125 g/ha ([7]; 125 g ai/ha): 90%
- pest or weed control at 250 g/ha ([7]; 250 g ai/ha): 90%
- pest or weed control at 31 g/ha ([8]; 31 g ai/ha): 100%
- pest or weed control at 62 g/ha ([8]; 62 g ai/ha): 100%
- pest or weed control at 125 g/ha ([8]; 125 g ai/ha): 98%
- pest or weed control at 250 g/ha ([8]; 250 g ai/ha): 100%
- pest or weed control at 31 g/ha ([9]; 31 g ai/ha): 100%
- pest or weed control at 62 g/ha ([9]; 62 g ai/ha): 100%
- pest or weed control at 125 g/ha ([9]; 125 g ai/ha): 100%
- pest or weed control at 250 g/ha ([9]; 250 g ai/ha): 100%
